Test results taken from publication PMC10299588, “Bromotyrosine-Derived Metabolites from a Marine Sponge Inhibit Pseudomonas aeruginosa Biofilms” (International Journal of Molecular Sciences, 2023).

Key:
Assay in all cases: Biofilm inhibition assay (OD600 growth and resazurin biofilm viability)
Assay type in all cases: cell-based, Pseudomonas aeruginosa
[1] = system: wild-type P. aeruginosa PAO1
Experimental: (§1) Figure 2 Biofilm assays to identify compounds that prevent biofilm formation. Biofilm inhibition assay. P. aeruginosa cultures were seeded into 384-well plates after dispensing compounds and antibiotics. The plates were incubated for 24 h at 37 °C followed by recording bacterial growth (OD600) and measuring the viability of biofilm bacteria using resazurin.
(§2) The overnight cultures at 37 °C in LB medium were washed once with sterile saline 0.9% (w/v) and adjusted to an OD600 of 0.05, and 1% inoculum was transferred into a fresh LB medium. Following incubation at 37 °C, 200 rpm for 6–6.5 h to reach the mid-log phase, the cells were washed once with sterile saline 0.9% and diluted to an OD600 of 0.01. Then, 45 µL aliquots were dispensed into 384-well plates (Greiner Bio-One, Kremsmünster, Austria, catalog no. 781091). In biofilm inhibition assays, test compounds (5 µL) were loaded prior to the addition of bacteria. The plates were incubated for 24 h at 37 °C in static conditions. The effects of compounds on bacterial growth and viability of biofilm bacteria were determined by the OD600 and resazurin metabolic assay, respectively. The final concentrations of DMSO in the assays were 1–2%. The negative controls or untreated cultures consisted of inoculum and different concentrations of DMSO. Antibiotic ciprofloxacin (0.25 µg/mL and 25 µg/mL) was used as positive controls. The initial OD600 and final OD600 were read before incubation at 37 °C and after 24 h incubation, respectively, followed by assessment of biofilm viability by resazurin metabolic assay. The experiments were carried out with three technical replicates and repeated at least twice. The growth inhibition was calculated as a function of the percentage of the total bacterial inhibition using Equation (1), where AB is the OD600 of LB medium, and AT0 and ATf are the OD600 recorded at inoculating time and at the end of the assay. (1) % Inhibition=100 × [ 1 − [OD600 (Asample Tf− Asample T0)−(AB Tf − AB T0)/OD600 (Anegative control Tf− Anegative control T0)−(AB Tf − AB T0)]]
(§3) Resazurin sodium salt (Sigma-Aldrich, St. Louis, MI, USA) was dissolved in Milli-Q water at 0.2% (w/v) and filter sterilized. The solution was stored at −20 °C in the dark. The assay was performed as previously described with modification. The cultures were withdrawn, and the plates were washed three times with sterile water using the plate washer (BioTek). To remove the remaining water in the wells, the plates were tapped with autoclaved paper towels. An amount of 50 µL of diluted RSZ solution in LB medium was added into each well, followed by incubation at 37 °C for 5–6 h. A microplate reader (BioTek Synergy 2) was used to measure the fluorescence intensity (excitation 530 nm, emission 590 nm). Data collected were determined as a function of fluorescence percentage using Equation (2), where FB is the fluorescence of the diluted RSZ solution in LB medium in the absence of P. aeruginosa cells. (2) % Inhibition=[(Fnegative control −FB )−(Fsample −FB )/(Fnegative control − FB )]×100

[2] = system: PDO300Δalg8 (alginate deletion mutant)
Experimental: as §1, §2, §3

[3] = system: PAO1ΔpelF (Pel deletion mutant)
Experimental: as §1, §2, §3

[4] = system: PDO300 (mucoid, alginate-overproducing mutant)
Experimental: as §1, §2, §3

[5] = system: PAO1ΔpslA (Psl deletion mutant)
Experimental: as §1, §2, §3

[6] = compound 86.2 µg/mL + ciprofloxacin 1/3 MIC (0.083 µg/mL), 24 h
[7] = compound 69.1 µg/mL + ciprofloxacin 1/4 MIC (0.0625 µg/mL)

COc1c(Br)cc(/C=C/C(=O)NCCCNCCCCNCCCN)cc1Br [Compound 1, ianthelliformisamine A]
growth disruption [1, 6]: > 90% | prevention of biofilm formation [1, 6]: > 90% | antimicrobial activity / prevention of biofilm formation ([1]; compound alone, 24 h): did not yield any antimicrobial activity and/or prevented biofilm formation | activity against biofilm bacteria [2]: < 60% | effect on planktonic counterparts [2]: significant death | growth disruption [3, 6]: > 90% | prevention of biofilm formation [3, 6]: > 90% | biofilm effect ([4]; compound 43.1 µg/mL + ciprofloxacin 1/3 and 1/4 MICs): approximately 100% | biofilm effect ([4]; compound alone at 43.1 µg/mL): 20% | growth inhibition ([4]; compound alone at 43.1 µg/mL and 86.2 µg/mL): > 70% | reduction of biofilm formation ([4]; compound alone at 86.2 µg/mL): ~ 80%

COc1c(Br)cc(/C=C/C(=O)NCCCNCCCCN)cc1Br [Compound 2, ianthelliformisamine B]
interaction with ciprofloxacin ([5]; ciprofloxacin 1/3 and 1/4 MIC): no synergistic interaction | effect on growth and biofilm formation ([5]; compound alone): marginal effects | growth inhibition and antibiofilm activity [1, 7]: caused growth inhibition and antibiofilm activity | antimicrobial activity / prevention of biofilm formation ([1]; compound alone, 24 h): did not yield any antimicrobial activity and/or prevented biofilm formation | survival compromised ([2]; compound + ciprofloxacin at 1/3 MIC): 60% | survival compromised ([2]; compound + ciprofloxacin at 1/4 MIC): 40% | susceptibility of biofilms ([2]; compound + ciprofloxacin at 1/4 and 1/3 MIC): much less susceptible | improvement of biofilm suppression by addition of ciprofloxacin ([3]; ciprofloxacin 1/3 MIC added): 20% | improvement of biofilm suppression by addition of ciprofloxacin ([3]; ciprofloxacin 1/4 MIC added): 13% | growth inhibition and antibiofilm activity [3, 7]: caused growth inhibition and antibiofilm activity | blockage of cellular progression (growth) ([4]; compound alone): > 50% | blockage of cellular progression (growth) ([4]; in the presence of ciprofloxacin at 1/3 and 1/4 MICs): > 70%

COc1c(Br)cc(/C=C/C(=O)NCCCNCCCCNCCCNC(=O)/C=C/c2cc(Br)c(OC)c(Br)c2)cc1Br [Compound 3, ianthelliformisamine C]
synergistic interaction with ciprofloxacin, planktonic forms and biofilms ([5]; compound 53.1 µg/mL): negligible synergistic interactions | biofilm inhibition ([5]; compound 106.2 µg/mL + sub-lethal doses of ciprofloxacin): ~ 100% | killing of planktonic and biofilm populations ([5]; compound alone 106.2 µg/mL): completely killed | planktonic growth inhibition ([5]; compound alone 106.2 µg/mL): independently inhibited planktonic growth | synergistic interaction with ciprofloxacin, planktonic forms and biofilms ([1]; compound 53.1 µg/mL): negligible synergistic interactions | planktonic growth inhibition ([1]; compound alone 106.2 µg/mL): independently inhibited planktonic growth | killing of biofilm bacteria ([1]; compound alone, 24 h): ≤ 60% | killing of free-living bacteria ([1]; compound alone, 24 h): up to 30% | effect on free-living cells ([2]; compound alone): eradicated | reduction of biofilm viability ([2]; compound alone): 80% | biofilm response (reduction) ([3]; combinations of compound with ciprofloxacin): ~ 60% | synergistic interaction with ciprofloxacin, planktonic forms and biofilms ([3]; compound 53.1 µg/mL): negligible synergistic interactions | interaction with ciprofloxacin on biofilm ([3]; compound 106.2 µg/mL, ciprofloxacin 1/4 MIC): antagonized | biofilm response (reduction) ([3]; compound alone 106.2 µg/mL): ~ 40% | planktonic growth inhibition ([3]; compound alone 106.2 µg/mL): independently inhibited planktonic growth | effect on free-living cells ([4]; compound alone): eradicated | reduction of biofilm viability ([4]; compound alone): ~ 100%
